From patent US20250161281A1, “EMOPAMIL-BINDING PROTEIN INHIBITORS AND USES THEREOF” (BIOGEN MA INC., priority 2022, published 2025)

biological target: T1, EBP (Homo sapiens, UniProt Q15125); assay: EBP Functional Assay (EBP immunoaffinity LC-MS assay); assay type: biochemical; conditions: HEK293T cells as source of EBP enzyme; 30 min with inhibitor, then zymosterol-d5, 37° C. for 4 h; percent conversion by LC-APCI MRM MS
T1 construct: HEK293T cells were utilized as the source of EBP enzyme; endogenous in cells; host or cells: HEK293T
Protocol: The EBP immunoaffinity (IA) LC-MS assay measures the potency of small molecule inhibitors of EBP by quantifying their concentration-dependent changes in the enzyme's substrate and product using liquid chromatography atmospheric pressure chemical ionization multiple reaction monitoring mass spectrometry (LC-APCI MRM MS). HEK293T cells were utilized as the source of EBP enzyme. The enzyme was incubated with the small molecule inhibitors at variable concentrations for 30 min. Deuterated form of EBP substrate, zymosterol-d5 (Avanti Polar Lipids, Cat #700068P-1 mg), was then added and the plate was incubated at 37° C. for 4 h. Finally, the sterol isomers were extracted and injected to LC-APCI MRM MS. MRM transition used for the quantification for both zymosterol and dihydrolathosterol (substrate and product of EBP enzymatic reaction, respectively) is 372.3-203.2, CE 30 and DP 80 in positive ion mode. Percent conversion of the zymosterol-d5 to dehydrolathosterol-d5 was used to derive IC50 curves. Tasin-1 (1′-[(4-Methoxyphenyl)sulfonyl]-4-methyl-1,4′-bipiperidine, CAS 792927-06-1) was used as the reference small molecule inhibitor. Percent conversion versus the compound concentration data were fit to the following 4-parameter logistic model to generate IC50 curves: […]

T1 sequence (Q15125 whole entry): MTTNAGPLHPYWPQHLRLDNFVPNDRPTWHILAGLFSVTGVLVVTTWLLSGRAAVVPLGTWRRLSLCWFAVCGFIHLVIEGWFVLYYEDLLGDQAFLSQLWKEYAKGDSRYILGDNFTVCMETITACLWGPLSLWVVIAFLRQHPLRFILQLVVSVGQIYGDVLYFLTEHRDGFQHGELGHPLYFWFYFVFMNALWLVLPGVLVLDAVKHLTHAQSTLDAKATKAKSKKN

COCn1ncc(Cl)c1S(=O)(=O)N1[C@@H]2CC[C@H]1C[C@H](N1CCC(C)CC1)C2 [Example 4, (1R,3s,5S)-8-((4-Chloro-1-(methoxymethyl)-1H-pyrazol-5-yl)sulfonyl)-3-(4-methylpiperidin-1-yl)-8-azabicyclo[3.2.1]octane] and Cc1cnn(C)c1S(=O)(=O)N1[C@@H]2CC[C@H]1C[C@H](N1CCC(C)CC1)C2 [Example 12, (1R,3s,5S)-8-((1,4-Dimethyl-1H-pyrazol-5-yl)sulfonyl)-3-(4-methylpiperidin-1-yl)-8-azabicyclo[3.2.1]octane] cannot be ordered by IC50: < 50 nM for the first, < 50 nM for the second.

CC1CCN([C@@H]2C[C@H]3CC[C@@H](C2)N3S(=O)(=O)c2cn3c(n2)CCCC3C)CC1 (stereo partly drawn) [Example 11, 5-Methyl-2-(((1R,3s,5S)-3-(4-methylpiperidin-1-yl)-8-azabicyclo[3.2.1]octan-8-yl)sulfonyl)-5,6,7,8-tetrahydroimidazo[1,2-a]pyridine] and CC1CCN([C@@H]2C[C@H]3CC[C@@H](C2)N3S(=O)(=O)c2cnc(C3CCOCC3)o2)CC1 [Example 6, 5-(((1R,3s,5S)-3-(4-Methylpiperidin-1-yl)-8-azabicyclo[3.2.1]octan-8-yl)sulfonyl)-2-(tetrahydro-2H-pyran-4-yl)oxazole] cannot be ordered by IC50: < 50 nM for the first, < 50 nM for the second.

O=S(=O)(c1ccc(OC(F)F)cc1)N1[C@@H]2CC[C@H]1C[C@H](CN1CCOCC1)C2 [Example 67, 4-(((1R,3s,5S)-8-((4-(Difluoromethoxy)phenyl)sulfonyl)-8-azabicyclo[3.2.1]octan-3-yl)methyl)morpholine] and O=S(=O)(c1ccc(OC(F)F)cc1)N1[C@@H]2CC[C@H]1C[C@H](NCC1CCOCC1)C2 [Example 29, (1R,3s,5S)-8-((4-(Difluoromethoxy)phenyl)sulfonyl)-N-((tetrahydro-2H-pyran-4-yl)methyl)-8-azabicyclo[3.2.1]octan-3-amine] cannot be ordered by IC50: < 50 nM for the first, < 50 nM for the second.

Compared with COC(C)C(C)NC1CC2CCC(C1)N2S(=O)(=O)c1ccc(OC(F)F)cc1 (stereo not shown) [Example 55, 8-((4-(Difluoromethoxy)phenyl)sulfonyl)-N-(3-methoxybutan-2-yl)-8-azabicyclo[3.2.1]octan-3-amine], CC(O)CNC1CC2CCC(C1)N2S(=O)(=O)c1ccc(OC(F)F)cc1 (stereo not shown) [Example 48, 1-((8-((4-(Difluoromethoxy)phenyl)sulfonyl)-8-azabicyclo[3.2.1]octan-3-yl)amino)propan-2-ol] is higher in IC50: < 50 nM for the first, 150 to 2000 nM for the second. The first is the more potent here.

First: O=S(=O)(c1ccc(OC(F)F)cc1)N1C2CCC1CC(N1C3CCCC1CC(F)(F)C3)C2 (stereo not shown) [Example 16, 9-(8-((4-(Difluoromethoxy)phenyl)sulfonyl)-8-azabicyclo[3.2.1]octan-3-yl)-3,3-difluoro-9-azabicyclo[3.3.1]nonane]
Second: O=S(=O)(c1ccc(OC(F)F)cc1)N1C2CCC1CC(N1C3CCCC1CC3)C2 (stereo not shown) [Example 53, 8-((4-(Difluoromethoxy)phenyl)sulfonyl)-8,8′-diaza-3,8′-bi(bicyclo[3.2.1]octane)]
The IC50 of the first is lower: < 50 nM for the first, 50 to 150 nM for the second.

Compared with O=S(=O)(c1ccc(OC(F)F)cc1)N1C2CCC1CC(NCC1CCOCC1)C2 (stereo not shown) [Example 19, 8-((4-(Difluoromethoxy)phenyl)sulfonyl)-N-((tetrahydro-2H-pyran-4-yl)methyl)-8-azabicyclo[3.2.1]octan-3-amine], O=S(=O)(c1ccc(OC(F)F)cc1)N1[C@@H]2CC[C@H]1C[C@@H](NC[C@H]1C[C@@H](O)C1)C2 (single isomer, unassigned) [Example 64] is higher in IC50: < 50 nM for the first, 50 to 150 nM for the second.

First: O=S(=O)(c1ccc(OC(F)F)cc1)N1C2CCC1CC(N[C@@H]1CCOC1)C2 (stereo partly drawn) [Example 70, 8-((4-(Difluoromethoxy)phenyl)sulfonyl)-N—((R)-tetrahydrofuran-3-yl)-8-azabicyclo[3.2.1]octan-3-amine]
Second: O=S(=O)(c1ccc(OC(F)F)cc1)N1C2CCC1CC(NC1CCC1O)C2 (stereo not shown) [Example 14, 2-((8-((4-(Difluoromethoxy)phenyl)sulfonyl)-8-azabicyclo[3.2.1]octan-3-yl)amino)cyclobutan-1-ol]
The IC50 of the first is higher: 50 to 150 nM for the first, < 50 nM for the second. The second is the more potent here.

Cc1nc(C(F)(F)F)ccc1S(=O)(=O)N1[C@@H]2CC[C@H]1C[C@H](N1CC3(COC3)C1)C2 (single isomer, unassigned) [Example 22] and Cc1nc(C(F)(F)F)ccc1S(=O)(=O)N1[C@@H]2CC[C@H]1C[C@@H](N1CC3(COC3)C1)C2 (single isomer, unassigned) [Example 23] cannot be ordered by IC50: < 50 nM for the first, < 50 nM for the second.

First: O=S(=O)(c1ccc(OC(F)F)cc1)N1[C@@H]2CC[C@H]1C[C@@H](NCC1(F)COC1)C2 (single isomer, unassigned) [Example 71]
Second: O=S(=O)(c1ccc(OC(F)F)cc1)N1[C@@H]2CC[C@H]1C[C@@H](NCC1(O)CCOCC1)C2 [Example 17, 4-((((1R,3r,5S)-8-((4-(Difluoromethoxy)phenyl)sulfonyl)-8-azabicyclo[3.2.1]octan-3-yl)amino)methyl)tetrahydro-2H-pyran-4-ol]
The IC50 of the first is higher: 150 to 2000 nM for the first, < 50 nM for the second.

First: CC(O)CCN[C@@H]1C[C@H]2CC[C@@H](C1)N2S(=O)(=O)c1ccc(OC(F)F)cc1 (mixture of isomers) [Example 60, rac-4-(((1R,3s,5S)-8-((4-(difluoromethoxy)phenyl)sulfonyl)-8-azabicyclo[3.2.1]octan-3-yl)amino)butan-2-ol]
Second: CC(O)CCN[C@H]1C[C@H]2CC[C@@H](C1)N2S(=O)(=O)c1ccc(OC(F)F)cc1 (mixture of isomers) [Example 59, rac-4-(((1R,3r,5S)-8-((4-(difluoromethoxy)phenyl)sulfonyl)-8-azabicyclo[3.2.1]octan-3-yl)amino)butan-2-ol]
The IC50 of the first is higher: 150 to 2000 nM for the first, 50 to 150 nM for the second.

CC1CCN([C@@H]2C[C@H]3CC[C@@H](C2)N3S(=O)(=O)c2cn(-c3ccccc3)nn2)CC1 [Example 44, (1R,3s,5S)-3-(4-Methylpiperidin-1-yl)-8-((1-phenyl-1H-1,2,3-triazol-4-yl)sulfonyl)-8-azabicyclo[3.2.1]octane] and Cc1nn(C)c2ncc(S(=O)(=O)N3[C@@H]4CC[C@H]3C[C@H](N3CCC(C)CC3)C4)cc12 [Example 45, 1,3-Dimethyl-5-(((1R,3s,5S)-3-(4-methylpiperidin-1-yl)-8-azabicyclo[3.2.1]octan-8-yl)sulfonyl)-1H-pyrazolo[3,4-b]pyridine] fall in the same range of IC50: 150 to 2000 nM for the first, 150 to 2000 nM for the second.

CC1CCN([C@H]2C[C@H]3CC[C@@H](C2)N3S(=O)(=O)c2cnc(C3CCOCC3)o2)CC1 [Example 2, 5-(((1R,3r,5S)-3-(4-Methylpiperidin-1-yl)-8-azabicyclo[3.2.1]octan-8-yl)sulfonyl)-2-(tetrahydro-2H-pyran-4-yl)oxazole] and Cc1noc(C)c1S(=O)(=O)N1[C@@H]2CC[C@H]1C[C@H](CN1CCOCC1)C2 [Example 38, 4-(((1R,3s,5S)-8-((3,5-Dimethylisoxazol-4-yl)sulfonyl)-8-azabicyclo[3.2.1]octan-3-yl)methyl)morpholine] cannot be ordered by IC50: < 50 nM for the first, < 50 nM for the second.

O=S(=O)(c1ccc(OC(F)F)cc1)N1C2CCC1CC(N1CCC3(COC3)C1)C2 (stereo not shown) [Example 51, 6-(8-((4-(Difluoromethoxy)phenyl)sulfonyl)-8-azabicyclo[3.2.1]octan-3-yl)-2-oxa-6-azaspiro[3.4]octane] gave an IC50 of 150 to 2000 nM.
